The test system of assay [1] is HCT116 BI 2536-Res. Clones. Nature of the assay: Viability of BI 2536-resistant HCT116 clones. The format is cell-based, human. The note with it: Homo sapiens, HCT-116; BI2536-Res. (Mean), 72 h; read-out: GI50. Here is the method:
(§1) Viability is represented as percentage survival normalised to DMSO control. […] PCR reactions were carried out using Amplitaq Gold polymerase (Applied Biosystems N8080241) with a 25-cycle programme. […] Prepared samples were submitted for next generation sequencing using MiSeq Nano run with Nextera XT library preparation. Sequencing and subsequent bioinformatics were performed by Cambridge Genomic Services (University Of Cambridge).

The subject of another assay is HCT116 wt. Kind of assay: Viability of drug-sensitive parental HCT116 cells. The class given is cell-based. To be noted: Homo sapiens, HCT-116, 72 h. Here is the method:
as §1

The subject of another assay is HCT116 KRAS G13D cells. Nature of the assay: Development of drug resistance under continuous treatment. The format is cell-based, human. The note with it: continuous treatment at 5x GI50. As for the experimental part: HCT116 wild-type cells (Horizon Discovery Ltd.) cultured in McCoy's 5A (Life Technologies #26600) medium supplemented with 10% Foetal Calf Serum (Life Technologies #10270) were treated on three occasions with titrations of the PLK1 ATP-competitive inhibitor BI 2536 (Selleckchem #S1109) or Poloppin in order to determine the 2.5x GI50, 3x GI50 and 5x GI50 values for each compound required to initiate the development of resistance. Cells were subsequently treated with 2.5x GI50, 3x GI50 and 5x GI50 concentrations of either compound, changing media and compound every three to four days until resistant colonies emerged or no viable cells remained. Single cell clones were isolated from cells resistant to 5x GI50 BI 2536. Equivalent experiments using 3x GI50 or 2.5x GI50 doses of Poloppin or BI2536 yielded identical results (data not shown). BI 2536-resistant clones (HCT116 BI 2536-Res. Clones) were treated with BI2536 or Poloppin, alongside drug-sensitive parental HCT116 cells (HCT116 wt), and viability was assessed after 72 h. Viability is represented as percentage survival normalised to DMSO control. […]

Another assay relates to Panc-1. Nature of the assay: Cell viability (SRB), Panc-1. The class given is cell-based, human. To be noted: Panc-1, c-MET inhibitor alone, SRB 72 h, Figure S5C, read-out: EC50, % survival. Here is the method: SW48 Parental, SW48 G12D, Panc-1, HPAF-II, Panc 02.03 and Panc 05.04 cell lines were seeded overnight at 5000 cells per well in a 96 well plate in recommended media (ATCC). Compounds were added the following day and viability was measured at 72h using the sulforhodamine B (SRB) colorimetric assay as follows. Cells were fixed by replacing media with 1% v/v Trichloroacetic Acid (TCA) (Sigma-Aldrich) at 4°C and incubated for 1h also at 4°C. Wells were washed thoroughly with copious amounts of deionised water before staining with Sulforhodamine B (SRB) (Sigma-Aldrich) solution (0.057% w/v in 1% v/v Acetic Acid (VWR)) for 30 min. Stain was aspirated and wells washed with several changes of 1% v/v Acetic Acid until unbound stain was removed, before air-drying. Bound stain was solubilized with 100μl / well 10mM Tris (pH 8.0) (Trizma Base (121.1) Sigma-Aldrich) with agitation for 10 min. Fluorescence intensity was recorded at Ex540nm / Em590nm using a BMG Pherastar Plus plate reader ([Vichai and Kirtikara, 2006]).
Pancreatic organoids were extracted and cultured as detailed above ([Boj et al., 2015]). In brief, pancreatic organoids were seeded at 600 cells per well in a 96 well plate and allowed to grow for 7 days with media replenishment on the 3rd day. Full-grown organoids were then treated with compounds for 72h and viability determined using CellTitre Glo 3D assay (Promega). For viability assays with c-MET siRNA, cells were reverse transfected in a 6 cm dish using Dharmafect 1 (GE Dharmacon) per manufacturer’s instructions. On the following day, cells were trypsinised and plated onto 96 well plates or 6 well plates. The 96 well plates were treated with a dose range of compounds or DMSO, and viability was determined via SRB colorimetric assay. Cells in the 6 well plates were collected at the end of experiment to corroborate knockdown of c-MET by Western blotting.
Cells were reverse-transfected with 50nM (SW48 parental, SW48 KRAS G12D and Panc-1) or 25nM (HeLa Flp-In T-REx parental cells) siRNA using Dharmafect (GE Dharmacon) as manufacturer’s recommendations. Where transfected cells were subsequently treated with compounds, the cells were allowed to settle overnight and then treated with compound at the indicated concentration the following day. Viability was assessed after 72 hrs, with the SRB colorimetric assay. Knockdown efficiencies were determined by Western blot or RT-qPCR. Oligos against the following target sequences were used. c-MET (Qiagen): […], […], […]. PLK1 (Qiagen): […]. PLK2 (SMARTpool; Dharmacon): ACACAGAAGGAGAACGAUA, CAUCAAUGAGGAUAGGAUA, CUGCCUAGUGUUACUGAUA, ACAAAGUCUACGCCGCAAA. PLK3 (SMARTpool; Dharmacon): GCGAGAAGAUCCUAAAUGA, GCAAGUGGGUUGACUACUC, GCACAUCCGUUGGCCAUCA, GACCUCAAGUUGGGAAAUU. PLK4 (Qiagen): […].

Assay [2] has as its target T1, NanoLuc-PLK4 fusion protein (Homo sapiens, UniProt O00444).
T1 construct: NanoLuc fused to the N-termini of full-length human PLK1, PLK2, PLK3, PLK4 or p38α MAPK; expressed in transfected cells; host or cells: HeLa, transient, digitonin-permeabilised
T1 sequence (O00444 1-970): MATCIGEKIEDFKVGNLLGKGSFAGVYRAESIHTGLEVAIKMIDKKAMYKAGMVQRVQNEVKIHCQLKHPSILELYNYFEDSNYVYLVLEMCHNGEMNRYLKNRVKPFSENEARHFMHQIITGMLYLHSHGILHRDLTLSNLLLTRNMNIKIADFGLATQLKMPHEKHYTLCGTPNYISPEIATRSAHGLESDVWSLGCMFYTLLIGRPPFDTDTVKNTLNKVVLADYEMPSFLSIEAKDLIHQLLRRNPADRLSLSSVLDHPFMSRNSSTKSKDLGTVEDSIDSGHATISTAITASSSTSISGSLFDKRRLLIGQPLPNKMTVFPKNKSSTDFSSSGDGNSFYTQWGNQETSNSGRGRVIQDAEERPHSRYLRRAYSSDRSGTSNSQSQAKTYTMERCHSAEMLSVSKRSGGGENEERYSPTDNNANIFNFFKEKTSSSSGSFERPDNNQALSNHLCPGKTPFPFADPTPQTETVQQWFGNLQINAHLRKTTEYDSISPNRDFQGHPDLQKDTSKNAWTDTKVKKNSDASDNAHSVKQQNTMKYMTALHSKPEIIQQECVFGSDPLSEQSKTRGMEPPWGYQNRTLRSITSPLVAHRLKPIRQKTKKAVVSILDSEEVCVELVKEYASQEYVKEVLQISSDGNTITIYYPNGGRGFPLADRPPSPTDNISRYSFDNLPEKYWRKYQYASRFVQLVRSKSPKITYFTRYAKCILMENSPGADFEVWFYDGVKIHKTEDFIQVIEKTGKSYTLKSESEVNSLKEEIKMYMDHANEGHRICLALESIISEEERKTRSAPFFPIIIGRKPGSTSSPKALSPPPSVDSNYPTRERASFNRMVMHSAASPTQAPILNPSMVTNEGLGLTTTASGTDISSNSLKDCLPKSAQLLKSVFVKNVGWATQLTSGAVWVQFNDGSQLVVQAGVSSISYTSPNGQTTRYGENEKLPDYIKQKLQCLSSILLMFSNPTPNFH
Kind of assay: NanoLuc thermal shift assay. The class given is cell-based. To be noted: compound at 100 μM. Here is the method:
(§2) HeLa cells were transfected with plasmids encoding NanoLuc fused to the N-termini of full-length human PLK1, PLK2, PLK3, PLK4 or p38α MAPK. Twenty-four h after transfection, the thermal stability of the fusion proteins was tested using a modified version of the assay protocol supplied by Promega. Briefly, cells were harvested by tyrpsinisation and centrifugation, counted, and resuspended to 200,000 cells/ml in 3mls of serum-free OptiMEM media. Cells were then permeabilised using with 50ug/ml digitonin in DMSO for 5 min and incubated with test compounds at 100uM, plus protease inhibitor cocktail (Promega G6521), in a final concentration of 5% DMSO for 1 h at 37°C. After incubation, 100 μl/well of cells were aliquoted into a 96-well, thin-walled PCR plate and then heated for 3 minutes using a pre-warmed MJ Tetrad DNA Engine set to run a temperature gradient of 42 to 66°C. The plates were then cooled to room temperature for 10 min, and then 80μl of each sample was transferred to a white-walled 96-well Nunc plate before NanoBRET™ NanoGlo Substrate diluted in Opti-MEM was added. NanoLuc enzyme activity was read out within 10 min using a BMG Clariostar plate reader.
(§3) Nanoluciferase enzyme activity of PLK1- or PLK4-Nanoluc fusion protein was analysed using GraphPad Prism. Data were normalised as follows: (treatment A RLU value at X°C temp/treatment A RLU value at 42°C temp) x 100. Using the Boltzmann sigmoidal equation, a curve was then fitted to the normalised data. From this non-linear fit, a V50 value was generated, which in this context represents the aggregation onset temperature (Tagg), at which 50% of the PLK1- or PLK4-Nanoluc fusion protein has aggregated.

Assay [3] has as its target T2, NanoLuc-PLK1 fusion protein (Homo sapiens, UniProt P53350).
T2 construct: NanoLuc fused to the N-termini of full-length human PLK1, PLK2, PLK3, PLK4 or p38α MAPK; expressed in transfected cells; host or cells: HeLa, transient, digitonin-permeabilised
Kind of assay: NanoLuc thermal shift assay. The format is cell-based. The note with it: compound at 100 μM. As for the experimental part: as §2, §3

A further assay deals with HeLa cells. Kind of assay: Mitotic index assay in HeLa cells. The class given is cell-based, human. To be noted: for EC50: Homo sapiens, HeLa, Figure 5A, read-out: MI EC50 (cellular assay for mitotic arrest). As for the experimental part:
Cells were plated at 10 000/well in 96-well plates and incubated overnight. The following day compound stocks in DMSO were diluted in medium then added to cells with a maximum final DMSO concentration on cells of 0.2%. […] Cells were permeabilised with 0.1% Triton X-100 then incubated with anti-phospho-histone H3 (Ser10) antibody (Abcam ab5176). The cells were washed with PBS then incubated with AlexaFluor 488 labelled goat anti-rabbit IgG (Invitrogen A11034) in the presence of 4ug/ml Hoechst 33342 (Invitrogen H3570). Cells were washed in PBS then imaged on an Arrayscan VTi HCS instrument (Thermo Fisher) using the Target Activation V4 Bioapplication. A user-defined threshold was applied to identify mitotic cells based on the intensity of phospho-histone H3 staining.

The target in assay [4] is T3, PLK1-PBD(345-603), Polo-box domain of human Polo-like kinase 1 (human, UniProt P53350 345-603).
T3 construct: Polo-like kinase 1 (PLK1), human, Polo-box domain, residues 345-603; also called PLK1 PBD (aa345-603); PBDaa345-603; source: E. coli C41, purified (GST-Sepharose column, cleaved on column with PreScission protease, gel chromatography)
T3 sequence (P53350 345-603): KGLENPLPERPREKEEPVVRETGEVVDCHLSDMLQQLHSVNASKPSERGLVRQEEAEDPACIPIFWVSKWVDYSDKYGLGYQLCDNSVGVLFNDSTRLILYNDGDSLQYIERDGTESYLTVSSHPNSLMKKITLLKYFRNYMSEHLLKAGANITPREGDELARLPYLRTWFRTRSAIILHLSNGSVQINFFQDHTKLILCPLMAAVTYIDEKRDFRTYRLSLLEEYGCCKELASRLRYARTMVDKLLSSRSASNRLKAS
Kind of assay: fluorescence polarisation; competition format: TAMRA-labelled phosphopeptide 10 nM, PBD 84 nM (2.5 ng/ul), PBS pH 7.4 plus 0.03% tween; compound and PBD incubated together at 22 C for 1 hour before the peptide was added; same procedure for PLK2 PBD with its own peptide. To be noted: both partners purified. (Polarisation of emitted light reports the rotation of a fluorescent probe.)

Where two headings read alike, the source gives them in different places.

T2 sequence (P53350 whole entry, the tested form may be a part): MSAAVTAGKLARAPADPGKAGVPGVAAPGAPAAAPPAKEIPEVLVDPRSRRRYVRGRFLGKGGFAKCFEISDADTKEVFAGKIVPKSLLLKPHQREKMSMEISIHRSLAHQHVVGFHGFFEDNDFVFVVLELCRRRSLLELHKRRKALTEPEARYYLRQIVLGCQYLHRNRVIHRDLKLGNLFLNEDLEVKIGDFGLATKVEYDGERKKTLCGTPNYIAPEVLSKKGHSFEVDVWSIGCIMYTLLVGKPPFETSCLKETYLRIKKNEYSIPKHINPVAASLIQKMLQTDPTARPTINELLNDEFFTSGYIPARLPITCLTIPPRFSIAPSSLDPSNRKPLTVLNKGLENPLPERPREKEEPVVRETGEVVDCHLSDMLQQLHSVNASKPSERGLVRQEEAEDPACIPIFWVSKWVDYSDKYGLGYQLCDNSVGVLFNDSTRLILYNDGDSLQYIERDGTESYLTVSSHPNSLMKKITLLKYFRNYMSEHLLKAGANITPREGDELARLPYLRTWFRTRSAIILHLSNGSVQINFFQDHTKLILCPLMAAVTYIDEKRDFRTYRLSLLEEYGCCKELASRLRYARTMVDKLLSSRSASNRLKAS

Broadly, the GI50 is the concentration giving 50% growth inhibition. In the case of `CC[C@@H]1C(=O)N(C)c2cnc(Nc3ccc(C(=O)NC4CCN(C)CC4)cc3OC)nc2N1C1CCCC1` [BI2536, reference compound], the GI50 was found to be 30.9 nM in assay [1] and 8.25 nM in the assay with HCT116 wt. The “acquisition of drug resistance” value with HCT116 KRAS G13D cells is on record as “readily acquire resistance”.

As a reminder, the EC50 is the midpoint of the concentration-response curve. For the molecule `COc1cc2c(Oc3ccc(NC(=O)C4(C(=O)Nc5ccc(F)cc5)CC4)cc3F)ccnc2cc1OCCCN1CCOCC1` [Foretinib], the EC50 in the assay on Panc-1 (Homo sapiens) was 2600 ± 1040 nM.

In the case of `Cc1cc(Cl)ccc1-n1c(CCC(=O)N(C)C)ccc1-c1ccc(Br)cc1` [PB114], the “thermal stability of NanoLuc-PLK4” value in assay [2] was “less active”. Besides, the “thermal stability of NanoLuc-PLK1” value in assay [3] is “less active”. Also, the “EC50, mitotic index assay” value in the assay with HeLa cells (HeLa cells treated for 16 hr, Figure 5B) was “inactive”.

For the molecule `O=C1NC(=O)C(c2cn3c4c(cccc24)CCC3)C1c1c[nH]c2ccccc12` (centres unmarked) [Tivatinib], the EC50 in the assay with Panc-1 came to 1200 ± 1030 nM.

Consider `CN(C)CCNC(=O)c1cccc(-c2ccc(-c3ccc(Br)cc3)n2-c2ccccc2C(F)(F)F)c1` [compound 4], for which, in the assay with HeLa cells, the EC50 turned out to be 580 nM.

As for `CN(C)CCNC(=O)c1ccc(-c2ccc(-c3ccc(Br)cc3)n2-c2ccccc2C(F)(F)F)cc1` [compound 5], the EC50 in the assay on HeLa cells was found to be 360 nM.

B1: TAMRA-labelled consensus PLK1 PBD binding phosphopeptide, 5-TAMRA-MAGPMQS(pThreonine)PLMGAKK-acid (peptide)
peptide: MAGPMQSTPLMGAKK
modifications: not fully specified; 5-TAMRA on the N-terminus; phosphothreonine (pThreonine) after MAGPMQS, residue 8 of the letters; C-terminal acid
notes: also called TAMRA-labeled substrate peptide
Turning to B1, in assay [4], the binding result is on record as “binds”.

(Values after article PMC5563081, “Modulating Protein-Protein Interactions of the Mitotic Polo-like Kinases to Target Mutant KRAS” (Cell Chemical Biology, 2017).)
